Assay results published in PubChem BioAssay AID248 (DTP/NCI, 2004).
Values joined by “and” are separate entries in the source; they are usually repeats but may differ in a detail not shown here. Identical values can stand only once. Inconclusive results and toxic doses are left out. No stated cut-off is given here; in the data, active means T/C of 150% or more; inactive means T/C below 125%.

System: L1210 leukemia ip in BDF1 mice, survival T/C
Assay: NCI In Vivo Anticancer Drug Screen. Data for tumor model L1210 Leukemia (intraperitoneal) in B6D2F1 (BDF1) mice
Details: endpoint: mean survival time, higher = longer survival
How it was run: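 Antitumor effect is assessed in tumor-bearing animals. Survival in the compound arm is compared with a vehicle-dosed control arm and expressed as their quotient.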

[1] = dose: 100.0 mg/kg/injection, schedule: Q01DX001 (ip), vehicle: Klucel (hydroxypropylcellulose) (HPC)
[2] = dose: 100.0 mg/kg/injection, schedule: Q01DX009 (ip), vehicle: Klucel (hydroxypropylcellulose) (HPC)
[3] = dose: 100.0 mg/kg/injection, schedule: Q01DX001 (ip), vehicle: saline
[4] = dose: 200.0 mg/kg/injection, schedule: Q01DX001 (ip), vehicle: saline
[5] = dose: 400.0 mg/kg/injection, schedule: Q01DX001 (ip), vehicle: saline
[6] = dose: 100.0 mg/kg/injection, schedule: Q01DX001 (ip), vehicle: carboxymethylcellulose (CMC)
[7] = dose: 200.0 mg/kg/injection, schedule: Q01DX001 (ip), vehicle: Klucel (hydroxypropylcellulose) (HPC)
[8] = dose: 200.0 mg/kg/injection, schedule: Q01DX009 (ip), vehicle: Klucel (hydroxypropylcellulose) (HPC)
[9] = dose: 400.0 mg/kg/injection, schedule: Q01DX001 (ip), vehicle: Klucel (hydroxypropylcellulose) (HPC)
[10] = dose: 400.0 mg/kg/injection, schedule: Q01DX009 (ip), vehicle: Klucel (hydroxypropylcellulose) (HPC)
[11] = dose: 100.0 mg/kg/injection, schedule: Q04DX003 (ip), vehicle: saline
[12] = dose: 200.0 mg/kg/injection, schedule: Q04DX003 (ip), vehicle: saline
[13] = dose: 400.0 mg/kg/injection, schedule: Q04DX003 (ip), vehicle: saline

Measured: T/C

Nc1ccc2nc3c(N)ccc(N)c3nc2c1
inactive: dose: 100.0 mg/kg/injection, schedule: Q04DX002 (ip), vehicle: saline with Tween-80 97 % of control | dose: 200.0 mg/kg/injection, schedule: Q04DX002 (ip), vehicle: saline with Tween-80 105 % of control | dose: 400.0 mg/kg/injection, schedule: Q04DX002 (ip), vehicle: saline with Tween-80 105 % of control

Cc1c(C#N)c2n(c1C)CCN2
inactive: dose: 25.0 mg/kg/injection, schedule: Q01DX009 (ip), vehicle: Klucel (hydroxypropylcellulose) (HPC) 105 % of control | dose: 50.0 mg/kg/injection, schedule: Q01DX009 (ip), vehicle: Klucel (hydroxypropylcellulose) (HPC) 97 % of control | [1] 91 % of control | [2] 94 % of control

Cc1ccc(C2C(C(=O)N3CCN(C)CC3)C2c2ccccc2)cc1 (centres undefined)
inactive: dose: 25.0 mg/kg/injection, schedule: Q04DX002 (ip), vehicle: saline 98 % of control | dose: 50.0 mg/kg/injection, schedule: Q04DX002 (ip), vehicle: saline 98 % of control | dose: 100.0 mg/kg/injection, schedule: Q04DX002 (ip), vehicle: saline 95 % of control

c1ccc(C2(NC3=NCCO3)CCCCC2)cc1
inactive: dose: 10.0 mg/kg/injection, schedule: Q01DX009 (ip), vehicle: Klucel (hydroxypropylcellulose) (HPC) 101 % of control | dose: 20.0 mg/kg/injection, schedule: Q01DX009 (ip), vehicle: Klucel (hydroxypropylcellulose) (HPC) 97 % of control | dose: 40.0 mg/kg/injection, schedule: Q01DX009 (ip), vehicle: Klucel (hydroxypropylcellulose) (HPC) 101 % of control | dose: 75.0 mg/kg/injection, schedule: Q01DX009 (ip), vehicle: Klucel (hydroxypropylcellulose) (HPC) 107 % of control

COC(=O)C1CC(NC(C)=O)C(OC(C)=O)C1OC(C)=O (centres undefined)
inactive: [3] 94 % of control | [4] 94 % of control | [5] 104 % of control

O=[N+]([O-])c1ccc2cnn(CCO)c2c1
inactive: [6] 101 % of control | dose: 200.0 mg/kg/injection, schedule: Q01DX001 (ip), vehicle: carboxymethylcellulose (CMC) 113 % of control | dose: 400.0 mg/kg/injection, schedule: Q01DX001 (ip), vehicle: carboxymethylcellulose (CMC) 101 % of control

COc1cc(CCCC(=O)O)c(OC)c(C)c1C
inactive: [1] 93 % of control | [2] 97 % of control | [7] 98 % of control | [8] 103 % of control | [9] 95 % of control | [10] 101 % of control

Cc1ccc(NC(=O)C(Br)C(Br)c2ccccc2)cc1Cl (centres undefined)
inactive: [2] 96 % of control | [8] 92 % of control | [10] 88 % of control

c1ccc(Nc2nnc(Nc3ccccc3)s2)cc1
inactive: [1] 92 % of control | [7] 103 % of control | [9] 106 % of control

COc1ccc(C2C3C=CC(C3)C2C(=O)O)cc1 (centres undefined)
inactive: dose: 100.0 mg/kg/injection, schedule: Q01DX009 (ip), vehicle: saline with Tween-80 97 % of control | dose: 100.0 mg/kg/injection, schedule: Q04DX003 (ip), vehicle: saline with Tween-80 93 % of control | dose: 200.0 mg/kg/injection, schedule: Q01DX009 (ip), vehicle: saline with Tween-80 93 % of control | dose: 400.0 mg/kg/injection, schedule: Q01DX009 (ip), vehicle: saline with Tween-80 95 % of control | dose: 400.0 mg/kg/injection, schedule: Q04DX003 (ip), vehicle: saline with Tween-80 91 % of control

COC(=O)C12OCC34C(CC5C(C)=C(O)C(=O)CC5(C)C3C(O)C1O)OC(=O)C(OC(=O)/C=C(\C)C(C)(C)O)C24 (centres undefined)
inactive: dose: 0.06 mg/kg/injection, schedule: Q01DX009 (ip), vehicle: saline with Tween-80 116 % of control | dose: 0.5 mg/kg/injection, schedule: Q01DX009 (ip), vehicle: saline with Tween-80 112 % of control | dose: 1.0 mg/kg/injection, schedule: Q01DX009 (ip), vehicle: saline with Tween-80 105 % of control | dose: 2.0 mg/kg/injection, schedule: Q01DX009 (ip), vehicle: saline with Tween-80 107 % of control

N#CCC(=O)N1Cc2cc3ccccc3nc2C1
inactive: dose: 100.0 mg/kg/injection, schedule: Q04DX003 (ip), vehicle: saline sonified 115 % of control | dose: 200.0 mg/kg/injection, schedule: Q04DX003 (ip), vehicle: saline sonified 95 % of control | dose: 400.0 mg/kg/injection, schedule: Q04DX003 (ip), vehicle: saline sonified 101 % of control

CC1=NS(=O)(=O)NC(C)(C)C1
inactive: dose: 12.5 mg/kg/injection, schedule: Q01DX009 (ip), vehicle: saline 93 % of control | dose: 25.0 mg/kg/injection, schedule: Q01DX009 (ip), vehicle: saline 93 % of control | dose: 50.0 mg/kg/injection, schedule: Q01DX001 (ip), vehicle: carboxymethylcellulose (CMC) 123 % of control | dose: 50.0 mg/kg/injection, schedule: Q01DX009 (ip), vehicle: saline 98 % of control | [6] 96 % of control | [2] 87 % of control

CCC(=O)c1ccc(NC(=S)Nc2ccccc2)cc1
inactive: dose: 5.0 mg/kg/injection, schedule: Q01DX009 (ip), vehicle: saline with Tween-80 104 % of control | dose: 10.0 mg/kg/injection, schedule: Q01DX009 (ip), vehicle: saline with Tween-80 97 % of control | dose: 20.0 mg/kg/injection, schedule: Q01DX009 (ip), vehicle: saline with Tween-80 101 % of control and 86 % of control | dose: 40.0 mg/kg/injection, schedule: Q01DX009 (ip), vehicle: saline with Tween-80 95 % of control and 89 % of control | dose: 80.0 mg/kg/injection, schedule: Q01DX009 (ip), vehicle: saline with Tween-80 86 % of control and 88 % of control | [11] 110 % of control | [12] 100 % of control | dose: 320.0 mg/kg/injection, schedule: Q01DX009 (ip), vehicle: saline with Tween-80 87 % of control | [13] 98 % of control

CC(=O)NCCCC(=O)O
inactive: [11] 101 % of control | [12] 103 % of control | [13] 100 % of control

Cc1[nH]nc(C(=O)N(C)C)c1N=NN(C)C
inactive: dose: 75.0 mg/kg/injection, schedule: Q01DX001 (ip), vehicle: saline 116 % of control

COc1ccc(C2=CN(S(=O)(=O)c3ccc(C)cc3)CCc3ccccc32)cc1
inactive: dose: 100.0 mg/kg/injection, schedule: Q04DX003 (ip), vehicle: Klucel (hydroxypropylcellulose) (HPC) 96 % of control | dose: 200.0 mg/kg/injection, schedule: Q04DX003 (ip), vehicle: Klucel (hydroxypropylcellulose) (HPC) 102 % of control | dose: 400.0 mg/kg/injection, schedule: Q04DX003 (ip), vehicle: Klucel (hydroxypropylcellulose) (HPC) 92 % of control

CC1(C)C2CC3C(CCC4C(=O)OC(=O)C43)C1C2 (centres undefined)
inactive: [1] 97 % of control | [7] 98 % of control | [9] 103 % of control

O=C1C(Cl)=C(N=Nc2c(Cl)c(O)c3ccccc3c2O)C(=O)c2ccccc21
inactive: dose: 12.5 mg/kg/injection, schedule: Q01DX009 (ip), vehicle: acetone 105 % of control | dose: 25.0 mg/kg/injection, schedule: Q01DX009 (ip), vehicle: acetone 107 % of control | dose: 50.0 mg/kg/injection, schedule: Q01DX009 (ip), vehicle: acetone 104 % of control | [6] 97 % of control

COC1OC(CBr)C(OS(C)(=O)=O)C(OC(=O)c2ccccc2)C1OC(=O)c1ccccc1 (centres undefined)
inactive: dose: 100.0 mg/kg/injection, schedule: Q04DX002 (ip), vehicle: Klucel (hydroxypropylcellulose) (HPC) 103 % of control | dose: 200.0 mg/kg/injection, schedule: Q04DX002 (ip), vehicle: Klucel (hydroxypropylcellulose) (HPC) 91 % of control | dose: 400.0 mg/kg/injection, schedule: Q04DX002 (ip), vehicle: Klucel (hydroxypropylcellulose) (HPC) 94 % of control

CCCN(CCC)S(=O)(=O)c1ccc(NC(=O)OC(c2ccccc2)(c2ccccc2)c2ccccc2)cc1
inactive: [3] 100 % of control | [4] 97 % of control | [5] 94 % of control

NCC1COc2ccccc2N1 (centres undefined)
inactive: dose: 100.0 mg/kg/injection, schedule: Q04DX002 (ip), vehicle: other 108 % of control | dose: 200.0 mg/kg/injection, schedule: Q04DX002 (ip), vehicle: other 101 % of control | dose: 400.0 mg/kg/injection, schedule: Q04DX002 (ip), vehicle: other 111 % of control

CCN(CC)CCC(=O)c1cccs1
inactive: dose: 100.0 mg/kg/injection, schedule: Q01DX009 (ip), vehicle: saline 87 % of control | dose: 200.0 mg/kg/injection, schedule: Q01DX009 (ip), vehicle: saline 89 % of control
